# Molecular target: T1, human recombinant Yes [a.a. 2–543 (end)] (Homo sapiens, UniProt P07947)
# T1 construct: human recombinant Yes [a.a; 2–543 (end)]; purchased BPS Bioscience 40488
# Assay: ADP-Glo kinase assay, inhibition rates of Yes phosphorylation activity (first and second screening)
# Format: biochemical
# Conditions: first screening; mean of n = 4 wells; 10 μmol L−1 compound
# Procedure, shortened: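 Hits from a first pass were rescreened after re-dissolution from fresh powder. The first pass reported the mean inhibition rate of quadruplicate wells per compound. Activity was that of recombinant human Yes [a.a. 2–543] kinase, read out with the ADP-Glo ADP-detection method.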
# T1 sequence (P07947 2-543): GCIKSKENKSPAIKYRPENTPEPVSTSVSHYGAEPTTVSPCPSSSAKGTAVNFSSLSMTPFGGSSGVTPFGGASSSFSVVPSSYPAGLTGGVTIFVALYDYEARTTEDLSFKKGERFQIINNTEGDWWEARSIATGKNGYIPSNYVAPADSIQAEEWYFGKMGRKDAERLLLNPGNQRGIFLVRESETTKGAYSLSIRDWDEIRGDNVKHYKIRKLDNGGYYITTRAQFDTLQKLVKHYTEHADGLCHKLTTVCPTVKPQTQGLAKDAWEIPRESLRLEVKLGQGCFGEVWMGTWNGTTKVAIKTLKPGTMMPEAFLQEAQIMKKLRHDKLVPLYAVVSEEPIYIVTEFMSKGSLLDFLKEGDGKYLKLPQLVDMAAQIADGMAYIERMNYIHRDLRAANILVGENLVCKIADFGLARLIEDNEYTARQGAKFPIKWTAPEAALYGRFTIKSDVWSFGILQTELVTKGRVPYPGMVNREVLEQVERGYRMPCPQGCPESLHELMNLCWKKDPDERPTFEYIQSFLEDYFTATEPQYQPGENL
row,SMILES,First screening IR (inhibition rate) [%]
1,O=C(O)c1ccc2nc3c(nc2c1)-c1cccc2cccc-3c12 [Compound Z55723243],15
2,Cc1ccc(-c2cc(C(=O)O)c3c(C)nn(-c4ccc(C)cc4C)c3n2)cc1 [Compound Z55871149],40
3,Cc1nn(CCC#N)c2nc(-c3ccc(Br)cc3)cc(C(F)(F)F)c12 [Compound Z55874673],-4
4,Cc1nn(CCc2nn[nH]n2)c2nc(-c3ccccc3)cc(C(F)(F)F)c12 [Compound Z55874741],1
5,Cc1ccc(S(=O)(=O)NC(=O)c2cc(C)n(CCCn3ccnc3)c2C)cc1 [Compound Z55892329],-11
6,Cc1cc(C)c(C)c(S(=O)(=O)Nc2ccccc2C(=O)N2CCN(c3cccc(C(F)(F)F)c3)CC2)c1C [Compound Z56576419],21
7,CCc1cccc(OCC(=O)C(C#N)c2nc3ccccc3[nH]2)c1 (stereo not shown) [Compound Z56595958],2
8,CCOC(=O)c1cc(-c2ccc(C#N)cc2)nc2c1c(C)nn2CCC#N [Compound Z56631499],-7
9,CCOC(=O)c1cc(-c2ccc3c(c2)OCCO3)nc2c1c(C)nn2CCC#N [Compound Z56631515],17
10,CC(C)n1ncc2c(C(=O)O)cc(-c3ccccc3F)nc21 [Compound Z56643534],-8
11,COc1ccc(-c2cc(C(=O)O)c3cnn(C(C)C)c3n2)cc1OC [Compound Z56643618],9
12,CC(C)n1ncc2c(C(=O)O)cc(-c3ccc4c(c3)OCCO4)nc21 [Compound Z56643642],2
13,Cc1ccccc1-c1cc(C(=O)O)c2cnn(C(C)C)c2n1 [Compound Z56643722],8
14,CC(C)c1noc2nc(-c3ccncc3)cc(C(=O)O)c12 [Compound Z56646434],-2
15,CCn1ncc2c(C(=O)O)cc(-c3ccccc3)nc21 [Compound Z56648330],-43
16,CS(=O)(=O)NS(=O)(=O)CCCCCl [Compound Z56755807],-15
17,CCCCS(=O)(=O)C1CCS(=O)(=O)C1 (stereo not shown) [Compound Z56757812],-9
18,Cc1ccc(S(=O)(=O)C2CS(=O)(=O)CC2O)cc1 (stereo not shown) [Compound Z56757815],-3
19,O=S1(=O)CC(S(=O)(=O)c2ccccc2)C(S(=O)(=O)c2ccccc2)C1 (stereo not shown) [Compound Z56757817],15
20,O=C(O)/C=C/c1cccc(NS(=O)(=O)/C=C/c2ccccc2)c1 [Compound Z56757962],1
21,CS(=O)(=O)C1(S(C)(=O)=O)CCCCC1 [Compound Z56758188],14
22,O=S(=O)(c1ccc(Cl)cc1)C1(S(=O)(=O)c2ccc(Cl)cc2)CCCC1 [Compound Z56759577],-18
23,N#CC(C#N)=CC1=C2OC(c3ccccc3)=CC(c3ccccc3)=C2CCC1 [Compound Z56760799],14

row,SMILES,First screening IR (inhibition rate) [%]
1,Cc1cc(-c2ccccc2)cc2c3ccccc3c3ccccc3[n+]12.[O-][Cl+3]([O-])([O-])[O-] [Compound Z56761787],4
2,O=S1(=O)C=CC(Br)C1 (stereo not shown) [Compound Z56764753],3
3,O=S1(=O)C=CCC1 [Compound Z56764769],9
4,O=c1c2ccc3c(=O)n4c5cccc6cccc(nc4c4ccc(c2c34)c2nc3ccccc3n12)c65 [Compound Z56768422],-6
5,Nc1ncnc(Nc2ccccc2)n1 [Compound Z56768427],16
6,CCN(CC)CCC1S(=O)(=O)CC(c2ccccc2)CS1(=O)=O (stereo not shown) [Compound Z56768715],8
7,CCN(CC)c1ccc(/C=C2\CCC(/C=N/NC(=O)NC3CCCCC3)=C2N2CCOCC2)cc1 [Compound Z56769590],-9
8,Nc1c2c(nc3sc4c(c13)CCCC4)-c1ccccc1CC2 [Compound Z56772171],-17
9,O=P(/C=C(\Cl)c1ccccc1)(/C=C(/Cl)c1ccccc1)Nc1cccc(S(=O)(=O)NCc2ccco2)c1 [Compound Z56773378],-1
10,CCOC(=O)/C(C#N)=C\C1=C2OC(c3ccccc3)=CC(c3ccccc3)=C2CCC1 [Compound Z56780975],-7
11,COC(=O)/C(=C\C1=C2OC(c3ccccc3)=CC(c3ccccc3)=C2CCC1)C(C)=O [Compound Z56781644],7
12,CCN(CC)c1ccc2c(c1)OC(=O)N(c1ccc(Cl)c(Cl)c1)P2(=Nc1ccc(C)cc1)N(CC)CC (stereo not shown) [Compound Z56783141],-2
13,Fc1ccc(/C=C2/CCCc3c2nc2ncnn2c3-c2ccc(F)cc2)cc1 [Compound Z56784264],8
14,C(=C1\CCCc2c1nc1ncnn1c2-c1ccccc1)/c1ccccc1 [Compound Z56784273],0
15,Brc1ccc(/C=C2/CCCc3c2nc2ncnn2c3-c2ccc(Br)cc2)cc1 [Compound Z56784274],3
16,Clc1ccc(/C=C2/CCCc3c2nc2ncnn2c3-c2ccc(Cl)cc2)cc1 [Compound Z56784275],-10
17,CCOC(=O)c1c(NC(=O)c2ccc(C(C)(C)C)cc2)n(CCCN2CCOCC2)c2nc3ccccc3nc12 [Compound Z56786201],4
18,Nc1ncnc(Nc2ccc(Br)cc2)n1 [Compound Z56786772],24
19,CCN(CC)c1ccc(C(=O)NC(=S)Nc2nc(-c3cccs3)cs2)cc1 [Compound Z56787522],-9
20,Cc1ccc(-n2c(C)c(C=O)c3c2CCc2cn(-c4ccccc4)nc2-3)cc1 [Compound Z56788048],-7
21,Cc1cc(C(=O)/C(C#N)=C2\C(=O)Nc3c(Cl)cc(Cl)cc32)c(C)n1-c1cccc(C(F)(F)F)c1 [Compound Z56789382],-23
22,Cc1ccc2c(c1)/C(=N/n1cnc3ccccc31)C(=O)N2 [Compound Z56789395],3
23,CCOC(=O)c1c(N)n(CC(C)NC(=O)C2CC2)c2nc3ccccc3nc12 (stereo not shown) [Compound Z56790662],-2

row,SMILES,First screening IR (inhibition rate) [%]
1,Cc1cc(/C=N/Nc2nc(-c3ccc(F)cc3)cs2)c(C)n1-c1cc(Cl)ccc1Cl [Compound Z56791351],-8
2,Cc1ccccc1Nc1ncnc(N)n1 [Compound Z56791580],15
3,CC(C)(C)c1cc(-n2c(-c3cccnc3)nc3cc4c(cc32)OCCO4)cc(C(C)(C)C)c1O [Compound Z56793119],6
4,Cc1cccc(C)c1OCc1nc2c3c(-c4ccccc4)c(-c4ccccc4)oc3ncn2n1 [Compound Z56793398],20
5,Clc1ccc(/C=N/Nc2ncnc3c2cnn3-c2ccccc2)cc1 [Compound Z56795594],13
6,c1ccc(-c2nc3c4ccccc4c4ccccc4c3n2-c2ccccc2)cc1 [Compound Z56798059],6
7,Clc1ccc(/C=C2/CCCc3c2nc2ncnn2c3-c2ccc(Cl)cc2Cl)c(Cl)c1 [Compound Z56798990],3
8,Clc1ccccc1/C=C1\CCCc2c1nc1ncnn1c2-c1ccccc1Cl [Compound Z56799005],6
9,COc1ccccc1Nc1ncnc(N)n1 [Compound Z56799636],-3
10,CCc1cccc(CC)c1NC(=O)COC(=O)CC1c2ccccc2CCN1S(=O)(=O)c1ccc(F)cc1 (stereo not shown) [Compound Z56803956],27
11,O=C(Nc1cc(C(F)(F)F)ccc1N1CCCCC1)c1ccc(Cl)c(S(=O)(=O)Nc2ccccc2C(=O)Nc2cc(C(F)(F)F)ccc2N2CCCCC2)c1 [Compound Z56805970],44
12,CN(C1CCS(=O)(=O)C1)S(=O)(=O)c1ccc(F)cc1 (stereo not shown) [Compound Z56813369],-5
13,O=C(Nc1ccc(C2(c3ccc(NC(=O)c4ccc(N5CCCCCC5)c([N+](=O)[O-])c4)cc3)CCCCC2)cc1)c1ccc(N2CCCCCC2)c([N+](=O)[O-])c1 [Compound Z56818449],-7
14,CCc1ccc(-c2cc(-c3ccccc3)c3c(n2)/C(=C\c2ccc(N(C)C)cc2)CCC3)cc1 [Compound Z56830412],-14
15,Cc1ccc(NC(=O)C(=O)c2c(-c3ccccc3)cc3ccccn23)cc1S(=O)(=O)N1CCOCC1 [Compound Z56835405],-2
16,Cc1cc(C)n(-c2nc(-c3cccnc3)nc3ccccc23)n1 [Compound Z56839033],12
17,COc1cc(/C=N/Nc2nc(-c3ccncc3)nc3ccccc23)ccc1O [Compound Z56841676],18
18,Cc1cc(N=C2C(=O)Nc3c(Cl)cc(Cl)cc32)ccc1Br [Compound Z56849070],1
19,Brc1cccc(C2C=C(c3ccccc3)Nc3ncnn32)c1 (stereo not shown) [Compound Z56850769],9
20,COCCN1C(=O)/C(=C/c2c(N3CCN(Cc4ccccc4)CC3)nc3ccc(C)cn3c2=O)SC1=S [Compound Z56850824],-11
21,COc1ccc(CCNC(=O)C(C#N)c2nc3ccccc3nc2N2CCN(Cc3ccccc3)CC2)cc1 (stereo not shown) [Compound Z56851971],3
22,Cn1nc([N+](=O)[O-])c2c(-c3nc4ccccc4n3C)c(N)n(C3CCCCC3)c2c1=O [Compound Z56852588],5
23,CCN1CCN(c2nc3ccccc3nc2C(C#N)C(=O)NCCc2ccc(OC)c(OC)c2)CC1 (stereo not shown) [Compound Z56854281],38

# Same assay, conditions: second screening, dissolved from fresh powder; n = 4; 10 μmol L−1 compound
row,SMILES,Second screening IR (inhibition rate) [%]
1,O=C(Nc1cc(C(F)(F)F)ccc1N1CCCCC1)c1ccc(Cl)c(S(=O)(=O)Nc2ccccc2C(=O)Nc2cc(C(F)(F)F)ccc2N2CCCCC2)c1 [Compound Z56805970],-10

# From paper PMC5607274, “An iterative compound screening contest method for identifying target protein inhibitors using the tyrosine-protein kinase Yes” (Scientific Reports, 2017)
